Measured values as given in PMC8364686, “Safety, tolerability, pharmacokinetics and pharmacodynamics of single oral doses of BI 187004, an inhibitor of 11beta-hydroxysteroid dehydrogenase-1, in healthy male volunteers with overweight or obesity” (Clinical Diabetes and Endocrinology, 2021).

Test: Plasma pharmacokinetics of BI 187004 after single oral doses (LC–MS/MS)
Settings: male, human, plasma, po; for concentration at 36 h: planned time 36 h; for concentration at 48 h: planned time 48 h; for concentration at 72 h: planned time 72 h; for concentration at 96 h: planned time 96 h; for concentration at 0.5 h: planned time 0.5 h; for concentration at 1 h: planned time 1 h; for concentration at 1.5 h: planned time 1.5 h; for concentration at 2 h: planned time 2 h; for concentration at 2.5 h: planned time 2.5 h; for concentration at 3 h: planned time 3 h; for concentration at 4 h: planned time 4 h; for concentration at 5 h: planned time 5 h; for concentration at 6 h: planned time 6 h; for concentration at 8 h: planned time 8 h; for concentration at 10 h: planned time 10 h; for concentration at 12 h: planned time 12 h
[1] = 80 mg, BI 187004 plasma concentrations, 80 mg single oral, Max
[2] = 80 mg, BI 187004 plasma concentrations, 80 mg single oral, Mean
[3] = 80 mg, BI 187004 plasma concentrations, 80 mg single oral, Median
[4] = 80 mg, BI 187004 plasma concentrations, 80 mg single oral, Min
[5] = 80 mg, BI 187004 plasma concentrations, 80 mg single oral, gMean
[6] = 160 mg, BI 187004 plasma concentrations, 160 mg single oral, Max
[7] = 160 mg, BI 187004 plasma concentrations, 160 mg single oral, Mean
[8] = 160 mg, BI 187004 plasma concentrations, 160 mg single oral, Median
[9] = 160 mg, BI 187004 plasma concentrations, 160 mg single oral, Min
[10] = 160 mg, BI 187004 plasma concentrations, 160 mg single oral, gMean
[11] = 160 mg, BI 187004 plasma concentrations, 160 mg single oral, individual subjects

N#Cc1ccc2c(c1)[C@H]1CCCN(C(=O)c3ccc4[nH]cnc4c3)[C@H]1C2 [BI 187004] showed a concentration at 24 h (80 mg, BI 187004 plasma concentrations, 80 mg single oral, planned time 24 h, Median) of 0.812 µM, a concentration at 24 h (80 mg, BI 187004 plasma concentrations, 80 mg single oral, planned time 24 h, Min) of 0.605 µM and a concentration at 24 h (80 mg, BI 187004 plasma concentrations, 80 mg single oral, planned time 24 h, gMean) of 0.878 µM. It also gave a concentration at 36 h [1] of 0.678 µM, a concentration at 36 h [2] of 0.411 µM and a concentration at 36 h [3] of 0.372 µM. It also gave a concentration at 36 h [4] of 0.223 µM, a concentration at 36 h [5] of 0.383 µM and a concentration at 48 h [1] of 0.596 µM. For the same compound, the concentration at 48 h [2] was 0.281 µM, the concentration at 48 h [3] was 0.23 µM and the concentration at 48 h [4] was 0.134 µM. The concentration at 48 h [5] was 0.247 µM, the concentration at 72 h [1] was 0.234 µM and the concentration at 72 h [2] was 0.09 µM. The concentration at 72 h [3] was 0.0651 µM, the concentration at 72 h [4] was 0.0463 µM and the concentration at 72 h [5] was 0.0742 µM. The concentration at 96 h [1] was 0.11 µM, the concentration at 96 h [2] was 0.0449 µM and the concentration at 96 h [3] was 0.0238 µM. It also gave a concentration at 96 h [4] of 0.0119 µM, a concentration at 96 h [5] of 0.0323 µM and a concentration at 24 h (80 mg, C24 gMean (%gCV), 80 mg single oral dose) of 0.878 µM. The AUC(0-inf) (160 mg) was 111 µM·h, the AUC(0-t) (160 mg) was 82.1 µM·h and the Cmax (160 mg) was 8.31 µM. It also gave a Tmax (160 mg) of 1 h, a Vd/F (160 mg) of 87.9 L and a half-life (160 mg) of 14.5 h. It also gave a concentration at 0.5 h [6] of 8.78 µM, a concentration at 0.5 h [7] of 6.38 µM and a concentration at 0.5 h [8] of 6.83 µM. For the same compound, the concentration at 0.5 h [9] was 2.52 µM, the concentration at 0.5 h [10] was 5.86 µM and the concentration at 1 h [6] was 8.74 µM. It also gave a concentration at 1 h [7] of 7.26 µM, a concentration at 1 h [8] of 7.64 µM and a concentration at 1 h [9] of 3.92 µM. It also gave a concentration at 1 h [10] of 7.04 µM, a concentration at 1.5 h [6] of 8.83 µM and a concentration at 1.5 h [7] of 7.28 µM. It also gave a concentration at 1.5 h [8] of 7.38 µM, a concentration at 1.5 h [9] of 5.19 µM and a concentration at 1.5 h [10] of 7.19 µM. The concentration at 1.5 h [11] was 7.48 µM, the concentration at 2 h [6] was 8.64 µM and the concentration at 2 h [7] was 7.07 µM. The concentration at 2 h [8] was 6.79 µM, the concentration at 2 h [9] was 6.36 µM and the concentration at 2 h [10] was 7.03 µM. The concentration at 2 h [11] was 7.23 µM, the concentration at 2.5 h [6] was 8.03 µM and the concentration at 2.5 h [7] was 6.73 µM. The concentration at 2.5 h [8] was 6.55 µM, the concentration at 2.5 h [9] was 6.07 µM and the concentration at 2.5 h [10] was 6.7 µM. It also gave a concentration at 2.5 h [11] of 6.93 µM, a concentration at 3 h [6] of 7.45 µM and a concentration at 3 h [7] of 5.95 µM. For the same compound, the concentration at 3 h [8] was 5.8 µM, the concentration at 3 h [9] was 5.33 µM and the concentration at 3 h [10] was 5.91 µM. For the same compound, the concentration at 3 h [11] was 5.47 µM, the concentration at 4 h [6] was 6.75 µM and the concentration at 4 h [7] was 5.8 µM. The concentration at 4 h [8] was 5.79 µM, the concentration at 4 h [9] was 5.06 µM and the concentration at 4 h [10] was 5.77 µM. The concentration at 4 h [11] was 5.23 µM, the concentration at 5 h [6] was 5.22 µM and the concentration at 5 h [7] was 4.87 µM. It also gave a concentration at 5 h [8] of 4.9 µM, a concentration at 5 h [9] of 4.42 µM and a concentration at 5 h [10] of 4.86 µM. It also gave a concentration at 5 h [11] of 4.42 µM, a concentration at 6 h [6] of 5.32 µM and a concentration at 6 h [7] of 4.34 µM. It also gave a concentration at 6 h [8] of 4.23 µM, a concentration at 6 h [9] of 3.43 µM and a concentration at 6 h [10] of 4.29 µM. For the same compound, the concentration at 6 h [11] was 4.03 µM, the concentration at 8 h [6] was 4.58 µM and the concentration at 8 h [7] was 3.72 µM. For the same compound, the concentration at 8 h [8] was 3.74 µM, the concentration at 8 h [9] was 2.58 µM and the concentration at 8 h [10] was 3.67 µM. It also gave a concentration at 8 h [11] of 3.65 µM, a concentration at 10 h [6] of 4.29 µM and a concentration at 10 h [7] of 3.09 µM. The concentration at 10 h [8] was 3.04 µM, the concentration at 10 h [9] was 1.94 µM and the concentration at 10 h [10] was 3 µM. For the same compound, the concentration at 12 h [6] was 3.64 µM, the concentration at 12 h [7] was 2.99 µM and the concentration at 12 h [8] was 2.91 µM. It also gave a concentration at 12 h [9] of 2.71 µM, a concentration at 12 h [10] of 2.97 µM and a concentration at 12 h [11] of 2.71 µM. It also gave a concentration at 24 h (160 mg, BI 187004 plasma concentrations, 160 mg single oral, planned time 24 h, Max) of 2.69 µM, a concentration at 24 h (160 mg, BI 187004 plasma concentrations, 160 mg single oral, planned time 24 h, Mean) of 1.68 µM and a concentration at 24 h (160 mg, BI 187004 plasma concentrations, 160 mg single oral, planned time 24 h, Median) of 1.49 µM. For the same compound, the concentration at 24 h (160 mg, BI 187004 plasma concentrations, 160 mg single oral, planned time 24 h, Min) was 1.36 µM, the concentration at 24 h (160 mg, BI 187004 plasma concentrations, 160 mg single oral, planned time 24 h, gMean) was 1.63 µM and the concentration at 24 h (160 mg, BI 187004 plasma concentrations, 160 mg single oral, planned time 24 h, individual subjects) was 1.36 µM.
